Structures are written as SMILES. pEC50: −log10 of the molar value.

The test system of data set [1] is Influenza strain A549 A/WSN/33 (H1N1). Kind of data set: microbe, parasite or virus in culture. It is filed as cell-based. The settings on record: Influenza A virus, A549, 20 h, A549 cells, influenza A/WSN/33 (H1N1), 20 hours incubation; read-out: A549_A(H1N1) EC50.
The next data set is described as follows: in vitro. The following applies: human, CC50, uninfected A549 cells, CellTiter-Glo.

On to `O=C1c2c(O)c(=O)ccn2N2CN1CC/C=C\CCOc1ccccc1[C@H]2c1ccccc1` (single isomer, unassigned) [Compound 65C, (2*R,*E)-15-hydroxy-2-phenyl-12,13,14,16-tetrahydro-11H-4-oxa-1(1,3)-pyrido[2,1-f][1,2,4]triazina-3(1,2)-benzenacyclodecaphan-7-ene-14,16-dione], for which the pEC50 in data set [1] is 5.10. The same compound returned a CC50 in “in vitro” greater than 20000 nM.
In the same order, the values of `O=C1c2c(O)c(=O)ccn2N2CN1C[C@H]1C[C@@H]1COc1cc(F)c(F)c3c1[C@H]2c1ccccc1SC3` (single isomer, unassigned) [Compound 127BA, (1a*S,11b*R,20a*S)-22,23-difluoro-17-hydroxy-1a,2,6,11b,20,20a-hexahydro-1H-5,4-(epiprop[1]en[1]yl[3]ylidene)-12,19-methanobenzo[6,7]thiepino[4,5-c]cyclopropa[k]pyrido[1,2-f][1]oxa[5,6,9]triazacyclotridecine-16,18-dione] are 8.85 and greater than 200 nM.
In the same order, the values of `O=C1c2c(O)c(=O)ccn2N2CN1C/C=C\COc1c(OC(F)(F)F)cccc1[C@@H]2c1ccccc1` (single isomer, unassigned) [Compound 134B, (18*S,Z)-12-hydroxy-18-phenyl-4-(trifluoromethoxy)-6,9-dihydro-18H-10,17-methanobenzo[b]pyrido[1,2-f][1]oxa[5,6,9]triazacyclotridecine-11,13-dione] are less than 7.00 and greater than 200 nM.
Consider `O=C1c2c(O)c(=O)ccn2N2CN1C/C=C\CCc1ccccc1[C@@H]2c1ccccc1` (single isomer, unassigned) [Compound 21B, (17*S,*Z)-4-hydroxy-16-phenyl-7,10,11,16-tetrahydro-6,17-methanobenzo[k]pyrido[1,2-b][1,2,5]triazacyclotridecine-3,5-dione], for which the pEC50 in data set [1] is 6.09. The compound further yielded a cytotoxic concentration (CC50) in “in vitro” greater than 1000 nM.
In the same order, the values of `C[C@@H]1/C=C/COc2c(F)cccc2[C@H](c2ccccc2)N2CN1C(=O)c1c(O)c(=O)ccn12` (single isomer, unassigned) [Compound 141BA, (9*R,18*S,E)-4-fluoro-12-hydroxy-9-methyl-18-phenyl-6,9-dihydro-18H-10,17-methanobenzo[b]pyrido[1,2-f][1]oxa[5,6,9]triazacyclotridecine-11,13-dione] are 6.51 and greater than 20000 nM.
The like results for `O=C1c2c(O)c(=O)ccn2N2CN1C1(/C=C/COc3cc(F)c(F)c4c3[C@H]2c2ccccc2SC4)CCC1` (single isomer, unassigned) [Compound 159B, (17a′*S,*E)-24′,25′-difluoro-12′-hydroxy-2′,17a′-dihydro-6′H-spiro[cyclobutane-1,9′-[3,4](epiprop[1]en[1]yl[3]ylidene)[10,17]methanobenzo[6,7]thiepino[4,5-c]pyrido[1,2-f][1]oxa[5,6,9]triazacyclotridecine]-11′,13′-dione] were, in that order, 9.72 and greater than 100 nM.
The like results for `O=C1c2c(O)c(=O)ccn2N2CN1C/C=C\COc1ccccc1[C@H]2c1ccc(F)c(F)c1` (single isomer, unassigned) [Compound 45A, (18*R,Z)-18-(3,4-difluorophenyl)-12-hydroxy-6,9-dihydro-18H-10,17-methanobenzo[b]pyrido[1,2-f][1]oxa[5,6,9]triazacyclotridecine-11,13-dione] were, in that order, less than 6.00 and greater than 2000 nM.
As for `O=C1c2c(O)c(=O)ccn2N2CN1CC/C=C\COc1c(ccc(F)c1F)[C@@H]2c1ccccc1` (single isomer, unassigned) [Compound 116A, (2*S,Z)-33,34-difluoro-15-hydroxy-2-phenyl-12,13,14,16-tetrahydro-11H-4-oxa-1(1,3)-pyrido[2,1-f][1,2,4]triazina-3(1,2)-benzenacyclononaphan-6-ene-14,16-dione], the pEC50 in data set [1] is 7.85. The same compound displayed a CC50 in the data set “in vitro” greater than 200 nM.
The like results for `C[C@@H]1/C=C/COc2cc(F)c(F)c3c2[C@H](c2ccccc2SC3)N2CN1C(=O)c1c(O)c(=O)ccn12` (single isomer, unassigned) [Compound 162A, (9*R,17a*R,*E)-24,25-difluoro-12-hydroxy-9-methyl-2,6,9,17a-tetrahydro-3,4-(epiprop[1]en[1]yl[3]ylidene)-10,17-methanobenzo[6,7]thiepino[4,5-c]pyrido[1,2-f][1]oxa[5,6,9]triazacyclotridecine-11,13-dione] were, in that order, less than 7.30 and greater than 100 nM.
With `O=C1c2c(O)c(=O)ccn2N2CN1CC/C=C/COc1cccc3c1[C@H]2c1cccc(F)c1SC3` (single isomer, unassigned) [Compound 137B, (1*S,13*E)-25-fluoro-7-hydroxy-16-oxa-23-thia-2,3,10-triazahexacyclo[15.12.1.12,10.03,8.021,30.024,29]hentriaconta-4,7,13,17,19,21(30),24(29),25,27-nonaene-6,9-dione], in data set [1], the negative logarithm of the EC50 (pEC50) is 8.28. In “in vitro”, the CC50 is greater than 200 nM.
In the same order, the values of `O=C1c2c(O)c(=O)ccn2N2CN1C[C@H]1C[C@H]1COc1cccc3c1[C@H]2c1ccccc1SC3` (single isomer, unassigned) [Compound 118AA, (1a*R,11b*S,20a*S)-17-hydroxy-1a,2,6,11 b,17,17a,20,20a-octahydro-1H-5,4-(epiprop[1]en[1]yl[3]ylidene)-12,19-methanobenzo[6,7]thiepino[4,5-c]cyclopropa[k]pyrido[1,2-f][1]oxa[5,6,9]triazacyclotridecine-16,18-dione] are 8.21 and greater than 200 nM.
In the case of `CC[C@@H]1/C=C/COc2cccc3c2[C@H](c2ccccc2SC3)N2CN1C(=O)c1c(O)c(=O)ccn12` [Compound 92AB, (9R,17aR,E)-9-ethyl-12-hydroxy-2,6,9,17a-tetrahydro-3,4-(epiprop[1]en[1]yl[3]ylidene)-10,17-methanobenzo[6,7]thiepino[4,5-c]pyrido[1,2-f][1]oxa[5,6,9]triazacyclotridecine-11,13-dione], the pEC50 in data set [1] was less than 6.30. The same compound showed a half-maximal cytotoxic concentration (CC50) in “in vitro” greater than 1000 nM.
In the same order, the values of `O=C1c2c(O)c(=O)ccn2N2CN1C/C=C\COc1cc(C(F)F)ccc1[C@@H]2c1ccccc1` (single isomer, unassigned) [Compound 94A, (18*S,Z)-3-(difluoromethyl)-12-hydroxy-18-phenyl-6,9-dihydro-18H-10,17-methanobenzo[b]pyrido[1,2-f][1]oxa[5,6,9]triazacyclotridecine-11,13-dione] are 7.59 and greater than 1000 nM.
The like results for `CC[C@H]1/C=C/COc2cc(F)c(F)c3c2[C@@H](c2ccccc2SC3)N2CN1C(=O)c1c(O)c(=O)ccn12` (single isomer, unassigned) [Compound 126BA, (9*S,17a*S,E)-9-ethyl-24,25-difluoro-12-hydroxy-2,6,9,17a-tetrahydro-3,4-(epiprop[1]en[1]yl[3]ylidene)-10,17-methanobenzo[6,7]thiepino[4,5-c]pyrido[1,2-f][1]oxa[5,6,9]triazacyclotridecine-11,13-dione] were, in that order, 9.64 and greater than 50 nM.
The like results for `O=C1c2c(O)c(=O)ccn2N2CN1C1(/C=C\COc3cc(F)c(F)c4c3[C@H]2c2ccccc2SC4)CC1` (single isomer, unassigned) [Compound 108D] were, in that order, 9.05 and greater than 200 nM.
On to `O=C1c2c(O)c(=O)ccn2N2CN1C1(/C=C/COc3c(F)cccc3[C@H]2c2ccccc2)CC1` (single isomer, unassigned) [Compound 95B, (18′*R,E)-4′-fluoro-12′-hydroxy-18′-phenyl-6′H,18′H-spiro[cyclopropane-1,9′-[10,17]methanobenzo[b]pyrido[1,2-f][1]oxa[5,6,9]triazacyclotridecine]-11′,13′-dione], for which the pEC50 in data set [1] was 8.77. Further, the CC50 in the data set “in vitro” was greater than 1000 nM.
The like results for `O=C1c2c(O)c(=O)ccn2N2CN1CCCCCc1ncccc1[C@H]2c1ccccc1` (single isomer, unassigned) [Compound 23A, (18*R)-12-hydroxy-18-phenyl-5,6,7,8,9,18-hexahydro-10,17-methanodipyrido[1,2-b:2′,3′-k][1,2,5]triazacyclotridecine-11,13-dione] were, in that order, 4.26 and greater than 10000 nM.
Turning to `O=C1c2c(O)c(=O)ccn2N2CN1C/C=C\COc1c(OC(F)(F)F)cccc1[C@H]2c1ccccc1` (single isomer, unassigned) [Compound 134A, (18*R,Z)-12-hydroxy-18-phenyl-4-(trifluoromethoxy)-6,9-dihydro-18H-10,17-methanobenzo[b]pyrido[1,2-f][1]oxa[5,6,9]triazacyclotridecine-11,13-dione], in data set [1], the pEC50 was 7.16. For the same compound, the CC50 in “in vitro” is greater than 200 nM.
Regarding `O=C1c2c(O)c(=O)ccn2N2CN1CCC/C=C/COc1ccccc1[C@H]2c1ccccc1` (single isomer, unassigned) [Compound 67A, (2*R,*Z)-15-hydroxy-2-phenyl-12,13,14,16-tetrahydro-11H-4-oxa-1(1,3)-pyrido[2,1-f][1,2,4]triazina-3(1,2)-benzenacyclodecaphan-6-ene-14,16-dione], the pEC50 in data set [1] was less than 6.00. Further, in “in vitro”, the CC50 was greater than 2000 nM.
The like results for `O=C1c2c(O)c(=O)ccn2N2CN1C/C=C/COCc1ccccc1C2c1ccccc1` (stereo not drawn) [Compound 17, (E)-15-hydroxy-2-phenyl-12,13,14,16-tetrahydro-11H-5-oxa-1(1,3)-pyrido[2,1-f][1,2,4]triazina-3(1,2)-benzenacyclononaphan-7-ene-14,16-dione] were, in that order, 7.11 and greater than 20000 nM.
In the same order, the values of `CC(C)c1ccccc1[C@H]1c2ccc(F)c(F)c2OC/C=C\CN2CN1n1ccc(=O)c(O)c1C2=O` (single isomer, unassigned) [Compound 158A, (18*S,*Z)-3,4-difluoro-12-hydroxy-18-(2-isopropylphenyl)-6,9-dihydro-18H-10,17-methanobenzo[b]pyrido[1,2-f][1]oxa[5,6,9]triazacyclotridecine-11,13-dione] are less than 7.30 and greater than 100 nM.

What is called pEC50 is the negative decadic logarithm of the EC50, by convention in mol/L. As a reminder, the CC50 is the concentration giving 50% cytotoxicity.

Values taken from US11312727B1, “Macrocyclic flu endonuclease inhibitors” (Janssen BioPharma, Inc., priority 2018, dated 2022).
